What all share (format): binding
Experiment [1] relates to antiserum produced by immunising with oestrone-6-carbomethoxyoximethyroglobulin (Miles-Yeda). Nature of the experiment: radioimmunoassay of oestrone, standard curve, Miles-Yeda antiserum. Particulars: Miles-Yeda antiserum as supplied, label age 23 days.
Experiment [2] has as its system antiserum produced by immunising with an oestrone derivative coupled in the 6 position (The John Radcliffe Hospital, Oxford). Nature of the experiment: radioimmunoassay of oestrone, standard curve, John Radcliffe Hospital antiserum. Particulars: J. Radcliffe Hosp. antiserum 1/32,000, label age 30 days.
Experiment [3] has as its system antiserum produced against oestriol conjugated to albumin (antiserum B). The experiment in a line: radioimmunoassay of oestriol, standard curve, antiserum B. As for the experimental part:
(§1) In the assay, an accurately known volume of the biological fluid is incubated with a standard amount of the radio-iodinated oestrogen derivative and a standard amont of the specific reagent, e.g. antibody, insufficient to bind all the oestrogens present. The radio-iodinated oestrogen derivatives and the specific reagent may conveniently be provided in buffered solution containing horse serum. […] The radioactive concentration of the precipitate and/or the supernatant liquid is then counted by standard techniques. If an absolute determination is required, a calibration curve may be generated in the usual way by means of oestrogen, e.g. oestriol, solutions of known concentrations, conveniently also in horse serum.
(§2) Chloramine-T (0.5 mg in 100 μl water) is added to a stirred mixture of oestriol (50 μg in 400 ul ethanol) and Na^125 I (10mCi in 100 μl dilute NaOH), and the mixture is stirred for a further 5 minutes. Sodium metabisulphite (1.2 mg in 500 μl water) is then added and the mixture stirred for 5 minutes before 1 ml of 0.1 M HCl is added. The mixture is then vigorously stirred with 1 ml of chloroform. The aqueous layer is separated from the organic solvent, and the aqueous layer is re-extracted with a further 1 ml of chloroform. The pooled chloroform extracts are evaporated to dryness under a stream of nitrogen, and the residue is redissolved in 50 μl of ethanol. The ethanol solution of ^125 I -- labelled oestriol derivative is purified by chromatography and the product is diluted in phosphate buffer containing horse serum (10%), sodium azide (1 mg/ml) and gelatine (1 mg/ml) prior to use in the radioimmunoassay
(§3) Samples of 50 μl of standard solutions of oestriol in horse serum, or of the unknown human serum samples, are dispensed into plastic tubes. To each tube is added 200 μl of a solution of enzymes (extracted from the snail Helix pomatia) in sodium acetate buffer, pH 5, and the contents of the tubes are briefly mixed. The tubes are then stoppered and incubated in a water bath at 37° C for 2 hours. After the incubation, replicate 50 μl samples are taken from the hydrolysed serum and dispensed into plastic tubes. to each tube is added 200 μl of phosphate buffer containing 10% horse serum, sodium azide (1 mg/ml) gelatine (1 mg/ml), and the oestriol derivative labelled with ^125 I as described above (approximately 0.3 μCi/ml). Volumes of 200 μl of the phosphate buffer containing horse serum, sodium azide and gelatine, and containing a dilution of antiserum produced against oestriol conjugated to albumin are added to each tube, and the contents of the tubes are then mixed. The tubes are left at ambient temperature for 30 minutes, and 500 μl of an ammoniumm sulphate solution (5.4 g in 10 ml water) is then added to each tube. After mixing, the tubes are centrifuged, the supernatant liquid is removed by aspiration and the precipitates in the tubes are counted in a γ-counter.

Experiment [4] concerns antiserum produced against oestriol conjugated to albumin (antiserum A). The experiment in a line: radioimmunoassay of oestriol, standard curve, antiserum A. As to the method:
as §1, §2, §3

In experiment [5] the test system is antiserum produced by immunising with an oestradiol derivative coupled in the 6 position (The John Radcliffe Hospital, Oxford). Nature of the experiment: radioimmunoassay of oestradiol, standard curve, John Radcliffe Hospital antiserum.
The test system of experiment [6] is antiserum produced by immunising with oestradiol-6-carbomethoxyoxime-BSA (Miles-Yeda). Nature of the experiment: radioimmunoassay of oestradiol, standard curve, Miles-Yeda antiserum. Particulars: Miles-Yeda antiserum as supplied, label age 23 days.
Experiment [7] deals with antiserum produced by immunising with oestriol-6-carbomethoxyoxime-BSA (antiserum A). Nature of the experiment: radioimmunoassay of oestetrol, standard curve, antiserum A. Particulars: antiserum A 1/100, label age 7 days.
The test system of experiment [8] is antiserum produced by immunising with oestriol-6-carbomethoxyoxime-BSA (antiserum B). The experiment in a line: radioimmunoassay of oestetrol, standard curve, antiserum B. To be noted: antiserum B 1/100, label age 7 days.
[9] abbreviates: J. Radcliffe antiserum 1/640, label age 31 days.
[10] abbreviates: J. Radcliffe antiserum 1/3200, label age 30 days.

Take `C[C@]12CC[C@@H]3c4ccc(O)cc4CC[C@H]3[C@@H]1CCC2=O` [E1, oestrone]: the “% Bound, 1ng oestrone” value in experiment [1] amounted to 15.4%; in experiment [2], 11.2%.

With `C[C@]12CC[C@@H]3c4ccc(O)cc4CC[C@H]3[C@@H]1C[C@@H](O)[C@@H]2O` [E3, Oestriol], the “% Bound, 50 ng E3” value in experiment [3] (50 ng E3) is 55.2%; in experiment [4] (50 ng E3), 57.2%. Also, the “% Bound, 100 ng E3” value in experiment [3] (100 ng E3) and in experiment [4] (100 ng E3) was 47.3% in each case. In addition, the figures for the “% Bound, 200 ng E3” value in experiment [3] (200 ng E3) and in experiment [4] (200 ng E3) were 33.0% and 32.6%, respectively. Further, the “% Bound, 350 ng E3” value in experiment [3] (350 ng E3) is recorded as 21.4%; in experiment [4] (350 ng E3), 23.0%. The “% Bound, 500 ng E3” value in experiment [3] (500 ng E3) is 17.3%; in experiment [4] (500 ng E3), 17.5%.

Regarding `C[C@]12CC[C@@H]3c4ccc(O)cc4CC[C@H]3[C@@H]1CC[C@@H]2O` [E2, oestradiol], the “% Bound, 1ng E2” value stood at 32.7% in experiment [5] (setting [9]), 3.0% in experiment [5] (setting [10]) and 4.0% in experiment [6]. In addition, the “% Bound, 2ng E2” value in experiment [5] (setting [9]) amounted to 13.1%; in experiment [5] (setting [10]), 0.5%.

In the case of `C[C@]12CC[C@@H]3c4ccc(O)cc4CC[C@H]3[C@@H]1[C@@H](O)[C@@H](O)[C@@H]2O` [E4, oestetrol], the “% Binding in presence of 20ng E4” value in experiment [7] is recorded as 11.0%; in experiment [8], 8.1%.

The values above are taken from patent US4062733A, “Radio-assay of oestrogen” (The Radiochemical Centre Limited, priority 1975, dated 1977).
